Experimental data taken from US12552826B2, “PRMT5 inhibitors” (Merck Sharp & Dohme LLC, priority 2018, dated 2026).

Molecular target: T1, PRMT5 (Homo sapiens, UniProt O14744)
T1 construct: endogenous in cells; host or cells: MCF-7
Experiment: PRMT5 Cell Target Engagement (TE) Assay
Type: cell-based
Conditions: MCF-7 cells, 3 days treatment, nuclear SDMA by high content imaging
Excerpt: The PRMT5 TE assay is a biomarker assay for identifying compounds that inhibit symmetric dimethylation of arginine (SDMA) of PRMT5 substrates. The following substrates have been reported for PRMT5: Histone H2A and H4 R3, Histone H3 R2, Histone H3 R8, spliceosome Sm proteins, ribosomal protein RPS10, p53, FEN1, nucleoplasmin, nucleolin, EGFR and EBNA. The assay will focus on detecting symmetrically dimethylated nuclear proteins using high content imaging technology. Detection of the expression of symmetrically dimethylated nuclear proteins is through a mixture of primary rabbit monoclonal antibodies to SDMA (CST 13222), which in turn recognized by an Alexafluor 488 dye-conjugated anti-rabbit IgG secondary antibody. The IN Cell Analyzer 2200 or Opera-Phenix measures nuclear Alexafluor 488 fluorescent dye intensity that is directly related to the level of expression of symmetrically dimethylated nuclear proteins at the single cell level. Nuclear AF488 dye intensities are compared to the mean value for DMSO treated cells (MIN) to report percent of inhibition for each compound-treated well.
In this assay, the cell potency (EC50) of each compound was determined from a ten point (1:3 serial dilution; top compound concentration of 10000 nM) titration curve using the following outlined procedure. Each well of a BD falcon collagen coated black/clear bottom 384-well plate was seeded with 4000 MCF-7 cells in 30 μl media and allowed to attach for 5 hours. Media is ATCC-formulated Eagle's Minimum Essential Medium, Catalog No. 30-2003. The following components were added to the base medium: 0.01 mg/mL human recombinant insulin; fetal bovine serum to a final concentration of 10%. Additional 30 μl of media containing 2× compounds were added to each well. Cells were treated for 3 days in 37° C. CO2 incubator. On day 3, cells were fixed with Cytofix, permeabilized with 0.4% Triton-X-100/Cytofix, and washed with D-PBS without Ca/Mg. Cells were blocked with Licor Odessey blocking reagent for 1 hour at room temperature, followed by incubation with anti-SDMA (1:1000) antibody at 4° C. overnight. 1° antibody was removed, followed by three washings with DPBS without Ca/Mg and 0.05% Tween20. Hoechst (5 μg/mL), Cell Mask deep stain (1:2000) and Alexa488-conjugated goat anti-rabbit IgG (2 μg/mL) was added for 1 hour at room temperature. A final washing step (three washes) was performed before sealing plate for imaging on In Cell Analyzer 2200 or Opera-Phenix. Images from analyzer were uploaded to Columbus for image analysis. IC50 values were determined by 4 parameters robust fit of percent fluorescence units vs. (Log10) compound concentrations.

T1 sequence (O14744 whole entry): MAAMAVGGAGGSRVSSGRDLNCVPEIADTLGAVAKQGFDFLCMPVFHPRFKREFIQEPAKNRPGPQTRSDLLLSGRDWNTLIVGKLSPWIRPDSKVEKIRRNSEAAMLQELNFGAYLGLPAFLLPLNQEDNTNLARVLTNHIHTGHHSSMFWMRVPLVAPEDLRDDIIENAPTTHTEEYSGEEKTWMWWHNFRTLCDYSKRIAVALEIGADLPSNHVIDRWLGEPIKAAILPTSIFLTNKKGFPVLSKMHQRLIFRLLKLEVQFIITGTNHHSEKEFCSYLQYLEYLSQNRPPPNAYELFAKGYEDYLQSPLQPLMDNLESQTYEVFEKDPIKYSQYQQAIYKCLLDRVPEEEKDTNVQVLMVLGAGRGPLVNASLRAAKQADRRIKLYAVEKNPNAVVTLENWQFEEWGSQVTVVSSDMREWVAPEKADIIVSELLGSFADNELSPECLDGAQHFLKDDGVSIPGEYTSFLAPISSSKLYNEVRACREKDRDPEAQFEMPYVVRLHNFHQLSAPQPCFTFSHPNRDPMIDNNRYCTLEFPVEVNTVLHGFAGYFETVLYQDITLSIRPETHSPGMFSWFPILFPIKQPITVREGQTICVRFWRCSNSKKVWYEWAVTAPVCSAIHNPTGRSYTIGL
T1 sequence (Q9BQA1 whole entry partner): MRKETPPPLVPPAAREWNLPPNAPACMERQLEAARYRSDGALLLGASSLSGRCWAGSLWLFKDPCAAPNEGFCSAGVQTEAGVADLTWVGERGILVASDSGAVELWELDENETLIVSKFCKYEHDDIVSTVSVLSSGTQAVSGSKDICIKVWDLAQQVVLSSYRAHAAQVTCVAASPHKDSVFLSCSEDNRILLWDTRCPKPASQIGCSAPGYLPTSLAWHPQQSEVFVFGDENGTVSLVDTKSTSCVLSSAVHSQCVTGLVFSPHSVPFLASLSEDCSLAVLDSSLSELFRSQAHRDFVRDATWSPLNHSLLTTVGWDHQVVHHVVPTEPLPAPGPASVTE

SMILES | EC50 [nM]
Cc1ccccc1[C@H](O)[C@H]1O[C@@H](n2ccc3c(N)ncnc32)[C@H](O)[C@]1(C)O [Example 41, 7-[(5S)-3-C-methyl-5-C-(2-methylphenyl)-beta-D-ribofuranosyl]-7H-pyrrolo[2,3-d]pyrimidin-4-amine] | > 10000
C[C@@]1(O)[C@@H]([C@H](O)c2ccc(Cl)cc2F)O[C@@H](n2ccc3c(N)ncnc32)[C@@H]1O [Example 42, 7-[(5R)-5-C-(4-chloro-2-fluorophenyl)-3-C-methyl-beta-D-ribofuranosyl]-7H-pyrrolo[2,3-d]pyrimidin-4-amine] | 1820
C[C@@]1(O)[C@@H]([C@@H](O)c2ccc(Cl)cc2F)O[C@@H](n2ccc3c(N)ncnc32)[C@@H]1O [Example 43, 7-[(5S)-5-C-(4-chloro-2-fluorophenyl)-3-C-methyl-beta-D-ribofuranosyl]-7H-pyrrolo[2,3-d]pyrimidin-4-amine] | > 10000
C[C@@]1(O)[C@@H]([C@H](O)c2cccc(Cl)c2F)O[C@@H](n2ccc3c(N)ncnc32)[C@@H]1O [Example 46, 7-[(5R)-5-C-(3-chloro-2-fluorophenyl)-3-C-methyl-beta-D-ribofuranosyl]-7H-pyrrolo[2,3-d]pyrimidin-4-amine] | 407
C[C@@]1(O)[C@@H]([C@@H](O)c2cccc(Cl)c2F)O[C@@H](n2ccc3c(N)ncnc32)[C@@H]1O [Example 47, 7-[(5S)-5-C-(3-chloro-2-fluorophenyl)-3-C-methyl-beta-D-ribofuranosyl]-7H-pyrrolo[2,3-d]pyrimidin-4-amine] | > 10000
C[C@@]1(O)[C@@H]([C@H](O)c2ccc(F)cc2Cl)O[C@@H](n2ccc3c(N)ncnc32)[C@@H]1O [Example 48, 7-[(5R)-5-C-(2-chloro-4-fluorophenyl)-3-C-methyl-beta-D-ribofuranosyl]-7H-pyrrolo[2,3-d]pyrimidin-4-amine] | > 10000
C[C@@]1(O)[C@@H]([C@@H](O)c2ccc(F)cc2Cl)O[C@@H](n2ccc3c(N)ncnc32)[C@@H]1O [Example 49, 7-[(5S)-5-C-(2-chloro-4-fluorophenyl)-3-C-methyl-beta-D-ribofuranosyl]-7H-pyrrolo[2,3-d]pyrimidin-4-amine] | > 10000
C[C@@]1(O)[C@@H]([C@H](O)c2ccc(F)c(F)c2F)O[C@@H](n2ccc3c(N)ncnc32)[C@@H]1O [Example 50, 7-[(5R)-3-C-methyl-5-C-(2,3,4-trifluorophenyl)-beta-D-ribofuranosyl]-7H-pyrrolo[2,3-d]pyrimidin-4-amine] | 3240
C[C@@]1(O)[C@@H]([C@@H](O)c2ccc(F)c(F)c2F)O[C@@H](n2ccc3c(N)ncnc32)[C@@H]1O [Example 51, 7-[(5S)-3-C-methyl-5-C-(2,3,4-trifluorophenyl)-beta-D-ribofuranosyl]-7H-pyrrolo[2,3-d]pyrimidin-4-amine] | > 10000
C[C@@]1(O)[C@@H]([C@H](O)c2cc(F)cc(F)c2F)O[C@@H](n2ccc3c(N)ncnc32)[C@@H]1O [Example 52, 7-[(5R)-3-C-methyl-5-C-(2,3,5-trifluorophenyl)-beta-D-ribofuranosyl]-7H-pyrrolo[2,3-d]pyrimidin-4-amine] | 141
C[C@@]1(O)[C@@H]([C@@H](O)c2cc(F)cc(F)c2F)O[C@@H](n2ccc3c(N)ncnc32)[C@@H]1O [Example 53, 7-[(5S)-3-C-methyl-5-C-(2,3,5-trifluorophenyl)-beta-D-ribofuranosyl]-7H-pyrrolo[2,3-d]pyrimidin-4-amine] | 8960
C[C@]1(O)[C@@H](O)[C@H](n2ccc3c(N)ncnc32)O[C@@H]1[C@](C)(O)c1cccc2c1CNCC2 [Example 63, 7-[6-deoxy-3-C-methyl-5-C-(1,2,3,4-tetrahydroisoquinolin-8-yl)-beta-D-ribo-hexofuranosyl]-7H-pyrrolo[2,3-d]pyrimidin-4-amine] | 182
C[C@@]1(O)[C@@H]([C@H](O)c2cc(F)c(F)c(C(F)F)c2)O[C@@H](n2ccc3c(N)ncnc32)[C@@H]1O [Example 64, 7-{(5R)-5-C-[3-(difluoromethyl)-4,5-difluorophenyl]-3-C-methyl-beta-D-ribofuranosyl}-7H-pyrrolo[2,3-d]pyrimidin-4-amine] | 219
C[C@@]1(O)[C@@H]([C@@H](O)c2cc(F)c(F)c(C(F)F)c2)O[C@@H](n2ccc3c(N)ncnc32)[C@@H]1O [Example 65, 7-{(5S)-5-C-[3-(difluoromethyl)-4,5-difluorophenyl]-3-C-methyl-beta-D-ribofuranosyl}-7H-pyrrolo[2,3-d]pyrimidin-4-amine] | > 10000
C[C@]1(O)[C@@H](O)[C@H](n2ccc3c(N)ncnc32)O[C@@H]1[C@](C)(O)c1cc(F)cc(C(F)F)c1 [Example 66, 7-{6-deoxy-5-C-[3-(difluoromethyl)-5-fluorophenyl]-3-C-methyl-alpha-L-talofuranosyl}-7H-pyrrolo[2,3-d]pyrimidin-4-amine] | 4

Second part, the compound after the results:

EC50 [nM] | SMILES
1060 | C[C@@]1(O)[C@@H]([C@H](O)c2cccc(F)c2F)O[C@@H](n2ccc3c(N)ncnc32)[C@@H]1O [Example 44, 7-[(5R)-5-C-(2,3-difluorophenyl)-3-C-methyl-beta-D-ribofuranosyl]-7H-pyrrolo[2,3-d]pyrimidin-4-amine]
> 10000 | C[C@@]1(O)[C@@H]([C@@H](O)c2cccc(F)c2F)O[C@@H](n2ccc3c(N)ncnc32)[C@@H]1O [Example 45, 7-[(5S)-5-C-(2,3-difluorophenyl)-3-C-methyl-beta-D-ribofuranosyl]-7H-pyrrolo[2,3-d]pyrimidin-4-amine]
391 | C[C@@]1(O)[C@@H]([C@H](O)c2cccc(C(F)(F)F)c2)O[C@@H](n2ccc3c(N)ncnc32)[C@@H]1O [Example 54, 7-{(5R)-3-C-methyl-5-C-[3-(trifluoromethyl)phenyl]-beta-D-ribofuranosyl}-7H-pyrrolo[2,3-d]pyrimidin-4-amine]
> 10000 | C[C@@]1(O)[C@@H]([C@@H](O)c2cccc(C(F)(F)F)c2)O[C@@H](n2ccc3c(N)ncnc32)[C@@H]1O [Example 55, 7-{(5S)-3-C-methyl-5-C-[3-(trifluoromethyl)phenyl]-beta-D-ribofuranosyl}-7H-pyrrolo[2,3-d]pyrimidin-4-amine]
32 | C[C@@]1(O)[C@@H]([C@H](O)c2cccc(C(F)F)c2)O[C@@H](n2ccc3c(N)ncnc32)[C@@H]1O [Example 56, 7-{(5R)-5-C-[3-(difluoromethyl)phenyl]-3-C-methyl-beta-D-ribofuranosyl}-7H-pyrrolo[2,3-d]pyrimidin-4-amine]
> 10000 | C[C@@]1(O)[C@@H]([C@@H](O)c2cccc(C(F)F)c2)O[C@@H](n2ccc3c(N)ncnc32)[C@@H]1O [Example 57, 7-{(5S)-5-C-[3-(difluoromethyl)phenyl]-3-C-methyl-beta-D-ribofuranosyl}-7H-pyrrolo[2,3-d]pyrimidin-4-amine]
301 | C[C@@]1(O)[C@@H]([C@H](O)c2cc(F)cc(C(F)(F)F)c2)O[C@@H](n2ccc3c(N)ncnc32)[C@@H]1O [Example 58, 7-{(5R)-5-C-[3-fluoro-5-(trifluoromethyl)phenyl]-3-C-methyl-beta-D-ribofuranosyl}-7H-pyrrolo[2,3-d]pyrimidin-4-amine]
> 10000 | C[C@@]1(O)[C@@H]([C@@H](O)c2cc(F)cc(C(F)(F)F)c2)O[C@@H](n2ccc3c(N)ncnc32)[C@@H]1O [Example 59, 7-{(5S)-5-C-[3-fluoro-5-(trifluoromethyl)phenyl]-3-C-methyl-beta-D-ribofuranosyl}-7H-pyrrolo[2,3-d]pyrimidin-4-amine]
403 | C[C@@]1(O)[C@@H]([C@H](O)c2cc(Cl)cc(C(F)(F)F)c2)O[C@@H](n2ccc3c(N)ncnc32)[C@@H]1O [Example 60, 7-{(5R)-5-C-[3-chloro-5-(trifluoromethyl)phenyl]-3-C-methyl-beta-D-ribofuranosyl}-7H-pyrrolo[2,3-d]pyrimidin-4-amine]
> 10000 | C[C@@]1(O)[C@@H]([C@@H](O)c2cc(Cl)cc(C(F)(F)F)c2)O[C@@H](n2ccc3c(N)ncnc32)[C@@H]1O [Example 61, 7-{(5S)-5-C-[3-chloro-5-(trifluoromethyl)phenyl]-3-C-methyl-beta-D-ribofuranosyl}-7H-pyrrolo[2,3-d]pyrimidin-4-amine]
9.4 | C[C@]1(O)[C@@H](O)[C@H](n2ccc3c(N)ncnc32)O[C@@H]1[C@](C)(O)c1cccc(C(F)F)c1 [Example 62, 7-{6-deoxy-5-C-[3-(difluoromethyl)phenyl]-3-C-methyl-alpha-L-talofuranosyl}-7H-pyrrolo[2,3-d]pyrimidin-4-amine]
